Data on 1 molecule can be found in BindingDB's records for doi:10.1016/j.ejmech.2011.07.022 (Medical University of Warsaw, 2011).

Each structure is given as a SMILES string.

The assay deals with T1, 5-hydroxytryptamine receptor 1A (Rattus norvegicus, UniProt P19327).
T1 sequence (P19327 whole entry): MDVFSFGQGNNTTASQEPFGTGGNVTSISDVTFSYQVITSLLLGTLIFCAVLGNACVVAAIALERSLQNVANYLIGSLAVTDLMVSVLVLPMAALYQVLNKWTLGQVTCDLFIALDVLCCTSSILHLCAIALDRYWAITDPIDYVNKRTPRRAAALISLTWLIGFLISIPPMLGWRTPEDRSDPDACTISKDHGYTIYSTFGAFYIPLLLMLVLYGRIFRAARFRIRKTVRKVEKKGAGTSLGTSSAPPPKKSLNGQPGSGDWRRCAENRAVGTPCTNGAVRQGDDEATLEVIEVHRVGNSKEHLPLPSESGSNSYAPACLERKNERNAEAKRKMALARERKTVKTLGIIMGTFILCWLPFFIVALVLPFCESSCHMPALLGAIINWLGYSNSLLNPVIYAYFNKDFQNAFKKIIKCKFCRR
The assay is described as follows: Displacement of [3H]8OH-DPAT from 5HT1A in rat brain cerebral cortex after 15 mins by scintillation counting.

On to `COc1ccc(Cl)cc1C(=O)NC1C[C@H]2CC[C@H](C1)N2Cc1ccco1` (stereo partly specified), for which the Ki is more than 100 µM.
